# Test results reported in the supplement of paper PMC11061612.
# Tests used:
# Test in all cases: Bliss excess, mean over the matrix (fraction); higher = more synergy
# COLO-679 (Melanoma) = system: COLO-679 (Melanoma)
# Outline: (§1)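 Bliss excess equals the observed combination effect minus the expected value EA + EB − EA·EB, where EA and EB are the effects of each agent alone. Combination Emax is the second-highest inhibition within the matrix. Inhibition was scaled from CellTiter-Glo 2.0 luminescence, with 0 set by vehicle wells and 1 by blank wells, after 72 hours of two-drug dosing of cells plated in 1536-well plates.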
# [1] = system: HCC1937 (Breast Carcinoma)
# Outline: as §1
# [2] = system: ME-180 (Cervical Carcinoma)
# Outline: as §1
# [3] = system: SW872 (Other Solid Carcinomas)
# Outline: as §1
# [4] = system: DU-145 (Prostate Carcinoma)
# Outline: as §1
# [5] = system: MOG-G-UVW (Low Grade Glioma)
# Outline: as §1
# [6] = system: SK-LU-1 (Lung Adenocarcinoma)
# Outline: as §1
# [7] = system: LC-1-sq (Squamous Cell Lung Carcinoma)
# Outline: as §1
# [8] = system: NCI-H650 (Lung Adenocarcinoma)
# Outline: as §1
# [9] = system: NCI-H1092 (Small Cell Lung Carcinoma)
# Outline: as §1
# [10] = system: OACM5-1 (Esophageal Adenocarcinoma)
# Outline: as §1
# [11] = system: MV-4-11 (Acute Myeloid Leukemia)
# Outline: as §1
# [12] = system: SW982 (Other Solid Carcinomas)
# Outline: as §1
# [13] = system: NCI-H2122 (Lung Adenocarcinoma)
# Outline: as §1
# [14] = system: NCI-H1838 (Lung Adenocarcinoma)
# Outline: as §1
# [15] = system: Ca-Ski (Cervical Carcinoma)
# Outline: as §1
# [16] = system: ALL-SIL (T-Lymphoblastic Leukemia)
# Outline: as §1
# [17] = system: MOLT-4 (T-Lymphoblastic Leukemia)
# Outline: as §1
# [18] = system: ML-2 (Acute Myeloid Leukemia)
# Outline: as §1
# [19] = system: G-401 (Other Solid Carcinomas)
# Outline: as §1
SMILES,Bliss excess (COLO-679 (Melanoma)),Bliss excess [1],Bliss excess [2],Bliss excess [3],Bliss excess [4],Bliss excess [5],Bliss excess [6],Bliss excess [7],Bliss excess [8],Bliss excess [9],Bliss excess [10],Bliss excess [11],Bliss excess [12],Bliss excess [13],Bliss excess [14],Bliss excess [15],Bliss excess [16],Bliss excess [17],Bliss excess [18],Bliss excess [19]
"NC1(C(=O)N[C@@H](CCO)c2ccc(Cl)cc2)CCN(c2ncnc3[nH]ccc23)CC1 [Capivasertib] + CCN(CCO)CCCOc1ccc2c(Nc3cc(CC(=O)Nc4cccc(F)c4)[nH]n3)ncnc2c1 [AZD2811] (first compound max 10 µM, 7x7, partner max 1 µM)",-0.2,0.0005,-0.0096,-0.0384,-0.0485,0.0415,-0.103,0.0488,-0.0281,-0.0137,-0.0245,-0.0436,0.0184,-0.0827,-0.0356,0.0121,-0.0631,-0.0189,-0.0094,-0.0072
"COc1nnc2ccc(N3CCC(c4ccc(OCCN5CCN(C)C(=O)[C@H]5C)cc4)CC3)nn12 [AZD5153] + C=CCn1c(=O)c2cnc(Nc3ccc(N4CCN(C)CC4)cc3)nc2n1-c1cccc(C(C)(C)O)n1 [AZD1775] (first compound max 1 µM, partner max 1 µM)",-0.042,-0.0921,-0.022,-0.0374,-0.0286,-0.0518,-0.0461,-0.0288,-0.0866,0.0051,0.0128,-0.0114,-0.079,-0.0432,-0.0531,0.0125,-0.0289,0.0171,-0.0214,-0.0526
"NC1(C(=O)N[C@@H](CCO)c2ccc(Cl)cc2)CCN(c2ncnc3[nH]ccc23)CC1 [Capivasertib] + COc1nnc2ccc(N3CCC(c4ccc(OCCN5CCN(C)C(=O)[C@H]5C)cc4)CC3)nn12 [AZD5153] (first compound max 10 µM, 7x7, partner max 1 µM)",-0.122,0.0189,-0.051,-0.0399,0.0276,0.0173,0.0081,0.0814,-0.0108,-0.0087,-0.019,0.0074,-0.0535,0.0243,0.0032,0.0046,-0.0024,0.0908,-0.0187,0.012
"COc1nnc2ccc(N3CCC(c4ccc(OCCN5CCN(C)C(=O)[C@H]5C)cc4)CC3)nn12 [AZD5153] + CC1(C)CCC(CN2CCN(c3ccc(C(=O)NS(=O)(=O)c4ccc(NCC5CCOCC5)c([N+](=O)[O-])c4)c(Oc4cnc5[nH]ccc5c4)c3)CC2)=C(c2ccc(Cl)cc2)C1 [Venetoclax] (first compound max 1 µM, 7x7, partner max 1 µM)",-0.0818,-0.0815,-0.0515,-0.051,-0.0181,-0.0315,-0.118,0.0066,-0.132,0.0191,-0.0458,0.0014,-0.0581,-0.041,-0.0605,-0.095,0.0565,-0.0198,0.0122,-0.0959
"Cn1cnc2c(F)c(Nc3ccc(Br)cc3Cl)c(C(=O)NOCCO)cc21 [Selumetinib] + C=CCn1c(=O)c2cnc(Nc3ccc(N4CCN(C)CC4)cc3)nc2n1-c1cccc(C(C)(C)O)n1 [AZD1775] (first compound max 10 µM, partner max 1 µM)",-0.0285,-0.0357,-0.071,0.0086,0.0039,-0.0144,0.0035,-0.095,0.0099,-0.0961,-0.0964,0.0249,-0.0112,0.0552,-0.0506,0.0199,-0.0934,-0.02,-0.0186,-0.0483
"CCN(CCO)CCCOc1ccc2c(Nc3cc(CC(=O)Nc4cccc(F)c4)[nH]n3)ncnc2c1 [AZD2811] + C=CCn1c(=O)c2cnc(Nc3ccc(N4CCN(C)CC4)cc3)nc2n1-c1cccc(C(C)(C)O)n1 [AZD1775] (first compound max 1 µM, partner max 1 µM)",-0.0325,-0.0331,-0.0356,0.0203,-0.0116,-0.0202,-0.0132,0.0025,0.0178,-0.0183,0.0426,-0.0626,-0.0501,0.0618,-0.0575,0.0123,-0.0408,0.0151,-0.102,0.0421
"CS(=O)(=O)CCNCc1ccc(-c2ccc3ncnc(Nc4ccc(OCc5cccc(F)c5)c(Cl)c4)c3c2)o1 [Lapatinib] + C[C@@H](Oc1cc(-c2cnn(C3CCNCC3)c2)cnc1N)c1c(Cl)ccc(F)c1Cl [Crizotinib] (first compound max 10 µM, 7x7, partner max 10 µM)",-0.066,-0.0404,-0.0227,-0.0069,-0.0242,0.0013,-0.0582,0.0171,-0.0521,0.0103,-0.0691,-0.0106,-0.0579,-0.0181,-0.0919,-0.042,0.0033,-0.0084,-0.0133,-0.0617
"CC(=O)c1c(C)c2cnc(Nc3ccc(N4CCNCC4)cn3)nc2n(C2CCCC2)c1=O [Palbociclib] + Cn1cnc2c(F)c(Nc3ccc(Br)cc3Cl)c(C(=O)NOCCO)cc21 [Selumetinib] (first compound max 10 µM, 7x7, partner max 10 µM)",0.0157,-0.0788,0.0042,-0.0263,-0.0326,0.0912,-0.0422,-0.0004,0.0058,-0.0322,-0.0247,0.0537,-0.058,0.0823,-0.0003,-0.0701,-0.0358,-0.012,0.0685,-0.0428
"Cc1c2c(nn1C)CSCc1cc(n(C)n1)CSc1cc(c3ccccc3c1)OCCCc1c(C(=O)O)n(C)c3c-2c(Cl)ccc13 [AZD5991] + C1CN(CCC1(C(=O)N[C@@H](CCO)C2=CC=C(C=C2)Cl)N)C3=NC=NC4=C3C=CN4 [Capivasertib] (first compound max 1 µM, 7x7, partner max 3 µM)",-0.0179,-0.0108,-0.028,0.0057,0.007,-0.0173,-0.0042,-0.0015,-0.0044,0.0204,-0.0123,-0.0089,-0.0074,0.0061,0.0017,0.0269,-0.0384,0.0964,-0.0159,0.0486
"CN(C)CCCOc1ccc(-c2ccc3ncc4c(c3c2)n(C2CCOCC2)c(=O)n4C)cn1 [AZD0156] + C[C@@H]1COCCN1C2=NC(=NC(=C2)C3(CC3)[S@](=N)(=O)C)C4=C5C=CNC5=NC=C4 [AZD6738] (first compound max 1 µM, 7x7, partner max 10 µM)",0.0164,-0.0386,-0.0468,0.0187,-0.0233,0.0282,0.0073,-0.0098,-0.011,-0.0427,-0.0282,-0.06,-0.0507,0.0154,-0.0082,-0.0036,-0.0759,0.0033,-0.0248,-0.0017
"Cn1cnc2c(F)c(Nc3ccc(Br)cc3Cl)c(C(=O)NOCCO)cc21 [Selumetinib] + CC(C)n1c(=O)n(C)c2cnc3cc(F)c(-c4ccc(OCCCN5CCCCC5)nc4)cc3c21 [AZD1390] (first compound max 10 µM, 7x7, partner max 0.3 µM)",-0.0416,-0.0161,-0.0521,0.0169,-0.0312,0.0397,-0.02,-0.0465,-0.0329,-0.0468,-0.0273,-0.0719,-0.0484,-0.0099,-0.0514,-0.0032,-0.0164,0.0535,-0.0506,-0.0623
"Cc1c2c(nn1C)CSCc1cc(n(C)n1)CSc1cc(c3ccccc3c1)OCCCc1c(C(=O)O)n(C)c3c-2c(Cl)ccc13 [AZD5991] + CN(C)CCCOc1ccc(-c2ccc3ncc4c(c3c2)n(C2CCOCC2)c(=O)n4C)cn1 [AZD0156] (first compound max 1 µM, 7x7, partner max 1 µM)",0.0068,0.0106,0.0231,0.0164,0.0146,-0.0104,-0.0889,0.0103,0.0527,0.0063,-0.0029,-0.0395,-0.0485,0.0237,0.043,0.0319,0.0049,-0.0058,-0.0149,0.0014
